Like-named read-outs stand apart in the source and are kept apart here.
Legend:
CYP2A6 [1] = target: T1, CYP2A6 (Homo sapiens, UniProt P11509); assay: Cytochrome P450 isoform inhibition, coumarin, human hepatic microsomes (Example 18); settings: TRAN 250 μM; 1 μM coumarin; VC 32.0 ± 1.4
T1 sequence (P11509 1-494): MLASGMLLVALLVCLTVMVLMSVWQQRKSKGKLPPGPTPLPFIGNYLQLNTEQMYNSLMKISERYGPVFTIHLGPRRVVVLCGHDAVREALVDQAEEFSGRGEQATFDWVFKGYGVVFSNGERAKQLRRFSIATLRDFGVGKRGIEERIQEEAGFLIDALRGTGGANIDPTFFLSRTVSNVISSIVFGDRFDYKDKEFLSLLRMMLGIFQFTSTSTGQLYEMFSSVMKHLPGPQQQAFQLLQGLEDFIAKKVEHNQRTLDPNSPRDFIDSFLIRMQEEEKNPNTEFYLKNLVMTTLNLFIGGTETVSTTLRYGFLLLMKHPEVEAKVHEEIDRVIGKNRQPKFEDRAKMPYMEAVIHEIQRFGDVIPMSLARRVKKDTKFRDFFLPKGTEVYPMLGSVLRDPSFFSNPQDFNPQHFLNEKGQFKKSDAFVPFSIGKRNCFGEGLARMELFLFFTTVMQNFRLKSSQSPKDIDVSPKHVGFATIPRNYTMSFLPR

CYP2A6 [2] = target: T1, CYP2A6; settings: for 7-HC Production: both, human, 20 min
CYP3A4 = CYP3A4 (Homo sapiens, UniProt P08684); settings: both, 10 min
Sequence of CYP3A4 (P08684 whole entry): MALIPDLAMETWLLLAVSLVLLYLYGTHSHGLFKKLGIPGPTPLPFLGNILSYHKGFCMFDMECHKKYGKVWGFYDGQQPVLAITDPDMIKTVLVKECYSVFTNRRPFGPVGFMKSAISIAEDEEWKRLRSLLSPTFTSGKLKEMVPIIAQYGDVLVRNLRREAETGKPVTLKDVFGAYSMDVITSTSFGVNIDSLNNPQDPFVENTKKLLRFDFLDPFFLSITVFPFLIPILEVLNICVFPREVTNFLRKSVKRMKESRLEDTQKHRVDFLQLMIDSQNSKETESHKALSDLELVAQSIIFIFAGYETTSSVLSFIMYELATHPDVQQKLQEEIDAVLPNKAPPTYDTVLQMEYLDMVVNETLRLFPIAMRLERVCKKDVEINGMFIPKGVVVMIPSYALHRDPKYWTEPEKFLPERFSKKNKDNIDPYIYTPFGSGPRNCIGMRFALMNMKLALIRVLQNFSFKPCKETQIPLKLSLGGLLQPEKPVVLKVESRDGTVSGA

CYP2C9 = CYP2C9 (Homo sapiens, UniProt P11712); settings: both, human, 40 min
Sequence of CYP2C9 (P11712 whole entry): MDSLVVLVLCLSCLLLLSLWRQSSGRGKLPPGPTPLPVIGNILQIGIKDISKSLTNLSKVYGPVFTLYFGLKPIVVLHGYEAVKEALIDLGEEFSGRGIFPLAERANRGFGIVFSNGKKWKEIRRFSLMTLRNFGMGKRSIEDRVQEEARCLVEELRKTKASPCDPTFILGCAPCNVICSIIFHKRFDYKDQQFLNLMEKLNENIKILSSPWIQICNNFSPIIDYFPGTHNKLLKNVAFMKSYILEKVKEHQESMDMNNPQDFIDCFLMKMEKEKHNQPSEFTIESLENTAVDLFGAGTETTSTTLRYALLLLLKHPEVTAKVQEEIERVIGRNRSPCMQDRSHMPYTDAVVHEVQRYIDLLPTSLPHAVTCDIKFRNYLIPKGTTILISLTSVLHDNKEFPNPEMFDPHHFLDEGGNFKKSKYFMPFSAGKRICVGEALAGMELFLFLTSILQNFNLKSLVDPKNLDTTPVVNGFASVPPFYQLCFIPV

CYP1A2 = target: T2, CYP1A2 (Homo sapiens, UniProt P05177); settings: both, 30 min
T2 sequence (P05177 1-516): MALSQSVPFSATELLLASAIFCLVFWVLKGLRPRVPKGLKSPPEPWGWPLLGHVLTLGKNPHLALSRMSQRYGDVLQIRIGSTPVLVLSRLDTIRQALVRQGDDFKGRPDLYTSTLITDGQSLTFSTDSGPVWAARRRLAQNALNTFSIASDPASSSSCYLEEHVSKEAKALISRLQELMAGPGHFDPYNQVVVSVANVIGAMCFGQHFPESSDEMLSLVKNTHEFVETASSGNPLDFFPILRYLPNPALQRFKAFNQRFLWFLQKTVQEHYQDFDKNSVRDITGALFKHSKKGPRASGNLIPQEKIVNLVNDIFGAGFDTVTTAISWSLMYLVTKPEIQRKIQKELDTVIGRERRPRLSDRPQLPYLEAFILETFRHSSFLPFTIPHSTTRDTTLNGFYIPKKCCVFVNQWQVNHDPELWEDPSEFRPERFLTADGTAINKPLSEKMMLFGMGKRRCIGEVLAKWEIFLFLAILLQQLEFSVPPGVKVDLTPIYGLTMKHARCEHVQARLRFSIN

C57BL/6J ob/ob mice = assay: Glucose lowering of (±) and (−) halofenate analogs in ob/ob mice (Example 12); format: in vivo
[3] = target: cytochrome P450 2C9 (CYP2C9) (Homo sapiens, UniProt P11712); assay: Inhibition of CYP2C9 tolbutamide hydroxylation in pooled human liver microsomes (Example 7); settings: ratio of apparent IC50
Sequence of cytochrome P450 2C9 (CYP2C9) (P11712 whole entry): as the sequence (P11712 whole entry) above
Protocol: Tolbutamide hydroxylation activity (100 μM ^14C-tolbutamide; 1 mM NADPH) was assayed in pooled human liver microsomes (0.6 mg protein/ml)) for 60 minutes at 37° C. both with and without test compounds.

CYP2D6 = CYP2D6 (Homo sapiens, UniProt P10635); settings: both, 15 min
Sequence of CYP2D6 (P10635 whole entry): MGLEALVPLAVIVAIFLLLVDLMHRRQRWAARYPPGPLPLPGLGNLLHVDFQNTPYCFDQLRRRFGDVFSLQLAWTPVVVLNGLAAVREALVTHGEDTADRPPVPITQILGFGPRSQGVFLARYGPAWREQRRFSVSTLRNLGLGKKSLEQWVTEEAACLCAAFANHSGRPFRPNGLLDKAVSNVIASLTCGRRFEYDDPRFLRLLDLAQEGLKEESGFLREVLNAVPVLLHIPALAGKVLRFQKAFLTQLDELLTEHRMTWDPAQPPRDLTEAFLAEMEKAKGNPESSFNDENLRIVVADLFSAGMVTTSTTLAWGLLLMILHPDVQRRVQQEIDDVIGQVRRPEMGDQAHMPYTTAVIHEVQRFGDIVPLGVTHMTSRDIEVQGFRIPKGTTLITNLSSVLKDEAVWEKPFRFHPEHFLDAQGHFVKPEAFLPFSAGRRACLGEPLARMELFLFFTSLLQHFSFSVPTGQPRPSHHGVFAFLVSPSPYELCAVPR

Q: Which results are given for `N[C@@H]1C[C@H]1c1ccccc1` (racemic) [TRAN, tranylcypromine, reference compound]?
A: 7-HC Production (CYP2A6 [1]): 0.00 ± 0.00 pmol/mg protein/min; % Inhibition (Coumarin, CYP2A6) (CYP2A6 [2]; microsomes): 100%

Q: Which results are given for `O=C(O)C(Oc1cccc(C(F)(F)F)c1)c1ccc(Cl)cc1` (single isomer, unassigned; (-)) [(−) halofenic acid, (−) 4-chlorophenyl-(3-trifluoromethylphenoxy)-acetic acid]?
A: 7-HC Production (CYP2A6 [2]; 0.33 μM): 33.3 ± 0.7 pmol/mg protein/min; 7-HC Production (CYP2A6 [2]; 1 μM): 32.6 ± 0.7 pmol/mg protein/min; 7-HC Production (CYP2A6 [2]; 3.3 μM): 32.1 ± 0.7 pmol/mg protein/min; 7-HC Production (CYP2A6 [2]; 10 μM): 33.1 ± 0.7 pmol/mg protein/min; 7-HC Production (CYP2A6 [2]; 33.3 μM): 32.3 ± 0.7 pmol/mg protein/min; 6β-OHT Production (CYP3A4; 0.33 μM): 1816 ± 12 pmol/mg protein/min; 6β-OHT Production (CYP3A4; 1 μM): 1851 ± 14 pmol/mg protein/min; 6β-OHT Production (CYP3A4; 3.3 μM): 1810 ± 3 pmol/mg protein/min; 6β-OHT Production (CYP3A4; 10 μM): 1819 ± 4 pmol/mg protein/min; 6β-OHT Production (CYP3A4; 33.3 μM): 1816 ± 6 pmol/mg protein/min; 4-OH TB Production (CYP2C9; 0.33 μM): 41.0 ± 0.9 pmol/mg protein/min; 4-OH TB Production (CYP2C9; 1 μM): 38.6 ± 0.5 pmol/mg protein/min; 4-OH TB Production (CYP2C9; 3.3 μM): 34.2 ± 0.2 pmol/mg protein/min; 4-OH TB Production (CYP2C9; 10 μM): 22.7 ± 0.6 pmol/mg protein/min; 4-OH TB Production (CYP2C9; 33.3 μM): 12.7 ± 0.2 pmol/mg protein/min; IC50 (CYP2C9; microsomes): ~11.3 µM; AC Production (CYP1A2; 0.33 μM): 116 ± 2 pmol/mg protein/min; AC Production (CYP1A2; 1 μM): 118 ± 2 pmol/mg protein/min; AC Production (CYP1A2; 3.3 μM): 119 ± 2 pmol/mg protein/min; AC Production (CYP1A2; 10 μM): 119 ± 2 pmol/mg protein/min; AC Production (CYP1A2; 33.3 μM): 119 ± 2 pmol/mg protein/min; time points with significantly lowered plasma glucose concentrations (C57BL/6J ob/ob mice; 125 mg/kg oral once a day): 6 h; 6 hours Glucose (C57BL/6J ob/ob mice; 125 mg/kg oral once a day, 6 hours after first dose): 163.8 ± 11.8 mg/dL; Predose Glucose (C57BL/6J ob/ob mice; baseline before dosing, group later given 125 mg/kg oral once a day): 312.9 ± 17.7 mg/dL; fold less potent than (+) halofenic acid in inhibiting CYP2C9 [3]: ~20 fold; DEX Production (CYP2D6; 0.33 μM): 107 ± 4 pmol/mg protein/min; DEX Production (CYP2D6; 1 μM): 110 ± 2 pmol/mg protein/min; DEX Production (CYP2D6; 3.3 μM): 104 ± 3 pmol/mg protein/min; DEX Production (CYP2D6; 10 μM): 107 ± 1 pmol/mg protein/min; DEX Production (CYP2D6; 33.3 μM): 106 ± 4 pmol/mg protein/min

— patent publication US8481597B2, “Use of (-) (3-trihalomethylphenoxy) (4-halophenyl) acetic acid derivatives for treatment of insulin resistance, type 2 diabetes, hyperlipidemia and hyperuricemia” (Metabolex, Inc., priority 1999, dated 2013)
